Assay results published in patent publication US11759462B2, “Spirocyclic compounds as tryptophan hydroxylase inhibitors” (priority 2013, dated 2023).
Read-outs that look alike come from different tables or passages of the source.

Columns and labels:
TPH = conditions: background statement; cited from earlier work
[1] = test system: central 5-HT production / CNS functions; conditions: cited from earlier work
[2] = carcinoid tumor patients; cited from earlier work
[3] = test system: jejunal mucosal 5-HT in mice (C57 BL6); assay: Intestinal 5-HT depletion assay (Example B, single 150 mg/kg oral dose); assay type: in vivo, mouse; conditions: one day after oral administration of a single 150 mg/kg dose, P-value class (ANOVA)
In short: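 C57 BL6 mice received one 150 mg/kg oral gavage dose; jejunal mucosa was homogenized in acidic trichloroacetic acid buffer and 5-HT measured by HPLC. Levels normalized to BCA protein, expressed as mean percent reduction versus vehicle ± SEM; ANOVA significance.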

[4] = target: T1, Recombinant human TPH1 (MBP tagged) (Homo sapiens, UniProt P17752); assay: TPH1 in vitro inhibition assay (kinetic fluorescence); assay type: biochemical
T1 construct: cloning full length human TPH1 cDNA in to a bacterial pMAL-c5E expression vector; made in house; host or cells: E. coli BL21 (DE3)
T1 sequence (P17752 1-444): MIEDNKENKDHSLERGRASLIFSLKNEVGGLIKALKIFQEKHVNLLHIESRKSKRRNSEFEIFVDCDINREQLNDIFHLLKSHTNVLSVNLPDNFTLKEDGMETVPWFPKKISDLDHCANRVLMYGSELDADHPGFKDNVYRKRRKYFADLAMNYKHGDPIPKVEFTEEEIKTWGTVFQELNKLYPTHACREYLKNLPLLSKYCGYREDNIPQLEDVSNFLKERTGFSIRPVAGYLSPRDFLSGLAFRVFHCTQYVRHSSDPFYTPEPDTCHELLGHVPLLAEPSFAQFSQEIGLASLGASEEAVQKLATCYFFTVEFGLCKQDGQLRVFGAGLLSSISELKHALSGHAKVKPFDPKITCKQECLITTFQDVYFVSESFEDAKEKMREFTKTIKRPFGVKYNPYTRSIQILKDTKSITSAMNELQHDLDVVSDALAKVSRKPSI
In short: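 Final mix: 15 nM MBP-TPH1, 30 μM Trp, 36 μM 6-methyltetrahydropterin, 25 μM ferrous ammonium sulfate, 50 mM MES pH 7.1, 1% DMSO, room temperature.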

[5] = test system: jejunal mucosal 5-HT in mice (C57 BL6); assay: Reduction of mucosal 5-HT concentrations (Example C, repeated oral dosing); assay type: in vivo, mouse; conditions: P-value class
Procedure: The efficacy of the TPH1 inhibitors of the invention was assessed for the ability to decrease intestinal serotonin concentration in mice. Mice (C57 BL6) were administered an oral dose of 10 or 50 mg/kg of the test article in the evening. […] Following an overnight fast, each animal was euthanized by exsanguination under isoflurane anesthesia. Jejunal intestinal mucosa was isolated and homogenized in […] of a buffer containing 0.3M trichloroacetic acid, 0.1M sodium acetate, 10 mM EDTA, 20 mM sodium bisulfate and 50 mM ascorbic acid. Following centrifugation the 5-HT levels in the supernatants were measured by HPLC. The remaining mucosal pellet was solubilized overnight at 37° C. in a 0.1% sodium dodecyl sulfate buffer in 0.1N NaOH followed by determination of protein concentrations using a BCA protein assay (Pierce, Rockford, Ill.). 5-HT levels were normalized to protein and data were expressed as mean percent reduction of mucosal 5-HT levels relative to vehicle control±SEM (percent 5-HT reduction). All animal studies were carried out with protocols approved by the Institutional Animal Care and Use Committee. P-values, indicating statistical significance of the data (ANOVA) are provided in the table: * refers to P<0.05,** refers to P<0.01, *** refers to P<0.005, and **** refers to P<0.0005.

[6] = read-out: TPH1 Range (TPH1 inhibition IC50)
[7] = after three oral doses (first 10 or 50 mg/kg, then two doses of 50 mg/kg) (title)

Structure (SMILES)	Efficacy (statistical significance of reduction of mucosal 5-HT concentrations relative to vehicle) [3]	IC50 [4, 6] [nM]	Efficacy (statistical significance of reduction of mucosal 5-HT concentrations relative to vehicle) [5, 7]	other results
N[C@@H](Cc1ccc(Cl)cc1)C(=O)O (racemic) [pCPA, p-chlorophenylalanine]	–	–	–	TPH inhibition (in words) (TPH): very weak and unselective irreversible inhibitor of TPH; CNS side effects ([1]; patients and animals): linked to the onset of depression and other alterations of CNS functions; efficacy against chemotherapy-induced emesis and diarrhea [2]: proven effective in treating chemotherapy-induced emesis, as well as diarrhea
Cc1ccn(-c2cc(-c3ccc(OC(C)C)cc3)ccc2[C@@H](Oc2cc(N3CCC4(CC3)CN[C@H](C(=O)O)C4)nc(N)n2)C(F)(F)F)n1 [Example 1l, (S)-8-(2-amino-6-((R)-2,2,2-trifluoro-1-(4′-isopropoxy-3-(3-methyl-1H-pyrazol-1-yl)-[1,1′-biphenyl]-4-yl)ethoxy)pyrimidin-4-yl)-2,8-diazaspiro[4.5]decane-3-carboxylic acid]	**** (and refers to P<0.0005)	< 50	*** (*** refers to P<0.005)	–
Cc1ccn(-c2cc(-c3ccc(C)c(C)c3)ccc2[C@@H](Oc2cc(N3CCC4(CC3)CN[C@H](C(=O)O)C4)nc(N)n2)C(F)(F)F)n1 [Example 1m, (S)-8-(2-amino-6-((R)-1-(3′,4′-dimethyl-3-(3-methyl-1H-pyrazol-1-yl)-[1,1′-biphenyl]-4-yl)-2,2,2-trifluoroethoxy)pyrimidin-4-yl)-2,8-diazaspiro[4.5]decane-3-carboxylic acid]	*** (*** refers to P<0.005)	–	–	IC50 ([4]; TPH1 Range (TPH1 inhibition IC50)): < 50 nM; Efficacy (statistical significance of reduction of mucosal 5-HT concentrations relative to vehicle) ([5]; (title)): * (* refers to P<0.05)
COc1cc(-c2ccc([C@@H](Oc3cc(N4CCC5(CC4)CN[C@H](C(=O)O)C5)nc(N)n3)C(F)(F)F)c(-n3ccc(C)n3)c2)ccn1 [Example 1n, (S)-8-(2-amino-6-((R)-2,2,2-trifluoro-1-(4-(2-methoxypyridin-4-yl)-2-(3-methyl-1H-pyrazol-1-yl)phenyl)ethoxy)pyrimidin-4-yl)-2,8-diazaspiro[4.5]decane-3-carboxylic acid]	** (** refers to P<0.01)	< 50	*** (*** refers to P<0.005)	–
CCCCc1ccc([C@@H](Oc2cc(N3CCC4(CC3)CN[C@H](C(=O)O)C4)nc(N)n2)C(F)(F)F)c(-n2ccc(C)n2)c1 [Example 12c, (S)-8-(2-amino-6-((R)-1-(4-butyl-2-(3-methyl-1H-pyrazol-1-yl)phenyl)-2,2,2-trifluoroethoxy)pyrimidin-4-yl)-2,8-diazaspiro[4.5]decane-3-carboxylic acid]	*** (*** refers to P<0.005)	< 50	*** (*** refers to P<0.005)	–
Nc1nc(O[C@H](c2ccc(-c3ccc4ncccc4c3)cc2)C(F)(F)F)cc(N2CCC3(CC2)CN[C@H](C(=O)O)C3)n1 [Example 55bg, (S)-8-(2-amino-6-((R)-2,2,2-trifluoro-1-(4-(quinolin-6-yl)phenyl)ethoxy)pyrimidin-4-yl)-2,8-diazaspiro[4.5]decane-3-carboxylic acid]	*** (*** refers to P<0.005)	< 50	*** (*** refers to P<0.005)	–
CCOC(=O)[C@@H]1CC2(CCN(c3cc(O[C@H](c4ccc(-c5ccc6ncccc6c5)cc4)C(F)(F)F)nc(N)n3)CC2)CN1 [Example 63cl, (S)-ethyl 8-(2-amino-6-((R)-2,2,2-trifluoro-1-(4-(quinolin-6-yl)phenyl)ethoxy)pyrimidin-4-yl)-2,8-diazaspiro[4.5]decane-3-carboxylate]	*** (*** refers to P<0.005)	–	–	Efficacy (statistical significance of reduction of mucosal 5-HT concentrations relative to vehicle) ([5]; (title)): *** (*** refers to P<0.005)
CCOC(=O)c1ccc(-c2ccc(-n3ccc(C)n3)c([C@@H](Oc3cc(N4CCC5(CC4)CN[C@H](C(=O)OCC)C5)nc(N)n3)C(F)(F)F)c2)cc1 [Example 63dc, (S)-ethyl 8-(2-amino-6-((R)-1-(4′-(ethoxycarbonyl)-4-(3-methyl-1H-pyrazol-1-yl)-[1,1′-biphenyl]-3-yl)-2,2,2-trifluoroethoxy)pyrimidin-4-yl)-2,8-diazaspiro[4.5]decane-3-carboxylate]	*** (*** refers to P<0.005)	–	*** (*** refers to P<0.005)	–
C#Cc1ccc(C[C@H](N)C(=O)O)cc1 [p-Ethynyl phenylalanine]	–	–	–	TPH inhibition (in words) (TPH): more selective and more potent TPH inhibitor than pCPA; effect on central 5-HT production ([1]; in vivo): affects central 5-HT production
